Experimental findings from patent EP1137645B1, “ALPHA-METHYLBENZYL-CONTAINING THIOUREA INHIBITORS OF HERPES VIRUSES CONTAINING A […] GROUP” (Wyeth, priority 1998, dated 2000) are described below.

≈ marks a conversion by molar mass, not a printed value. Read-outs that look alike come from different tables or passages of the source.

In test [1] the test system is HCMV recombinant mutant virus whose genome contains the prokaryotic beta-glucuronidase gene. Description: microbe, parasite or virus in culture. Type of test: cell-based, human cytomegalovirus. The note with it: for IC50: Human betaherpesvirus 5, Fibroblast; for IC50 ug/ml HCMV: human foreskin fibroblasts. Summed up:
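Antiviral IC50 estimated from reduced reporter activity across compound amounts: lysates prepared 96 h after infection were tested with p-nitrophenyl- or methylumbelliferyl-glucuronide. Cells were human foreskin fibroblasts, infected alongside inhibitor with HCMV (e.g. RV145) expressing viral promoter-driven beta-glucuronidase.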

In the next test the test system is VZV strain Ellen. Description: VZV antiviral (ELISA) assay. The test is classed as cell-based. Summed up:
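HFF cells infected with VZV Ellen at multiplicity below 0.1 overnight, then mixed infected/uninfected cells seeded with compound in DMEM/2% FBS and incubated three days at 37°C, 5% CO2.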

The test system of another test is HSV- I. Description: HSV antiviral (ELISA) assay. The settings on record: for IC50: read-out: IC50 (ug/ml) HSV. Type of test: cell-based. Summed up:
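IC50 from fluorescence versus untreated control in a cell ELISA: anti-glycoprotein D antibody, β-galactosidase-conjugated secondary, 4-methyl umbelliferone read at 365/450 nm. Vero cells (2% FBS DMEM) received compound 30 min pre-infection with HSV-1 at MOI 0.006, fixed ~24 h post-infection.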
Background: In an ELISA, binding on a coated surface is turned into a signal by an enzyme label.

Where [2] appears, read: Human alphaherpesvirus 3, VZV strain Ellen, HFF cells, ELISA, read-out: IC50 (ug/ml) VZV.
Setting [3] is: read-out: IC50 ug/ml HCMV, HCMV, human foreskin fibroblasts.
Where [4] appears, read: Human alphaherpesvirus 3, HFF, read-out: IC50 (ug/ml) VZV, VZV strain Ellen, HFF cells, ELISA.
The mark [5] stands for this setting: VZV strain Ellen, HFF cells, ELISA.

Regarding `O=C(Nc1ccc(NC(=S)Nc2ccc(OCC(F)(F)F)cc2OCC(F)(F)F)cc1)c1ccccc1F` [Example 1010, N-(4-{3-[2,4-Bis-(2,2,2-trifluoro-ethoxy)-phenyl]-thioureido}-phenyl)-2-fluoro-benzamide], the IC50 in test [1] (read-out: IC50 ug/ml HCMV) was > 10 µg/mL; with VZV strain Ellen (setting [2]) it was > 10 µg/mL; in the test with HSV- I (HSV- I, Vero cells, ELISA), > 10 µg/mL.

`Cc1ccc([C@H](C)NC(=S)Nc2ccc(NC(=O)c3ccccc3F)cc2)cc1` [Example 1011, 2-Fluoro-N-{4-[3-((1S)-1-p-tolyl-ethyl)-thioureido]-phenyl}-benzamide]: the results for the IC50 (in test [1] (setting [3]); in the test on VZV strain Ellen (setting [4]); in the test with HSV- I (Vero)) were 6.8 µg/mL (≈ 16.7 µM), 0.55 µg/mL (≈ 1.35 µM) and > 10 µg/mL, respectively.

For `Cc1ccc([C@@H](C)NC(=S)Nc2ccc(NC(=O)c3ccccc3F)cc2)cc1` [Example 1012, 2-Fluoro-N-{4-[3-((1R)-1-p-tolyl-ethyl)-thioureido]-phenyl}-benzamide], the IC50 in test [1] (setting [3]) is 7.1 µg/mL (≈ 17.4 µM); in the test with VZV strain Ellen (setting [4]), > 7.5 µg/mL; with HSV- I (Vero) it was > 10 µg/mL.

For the molecule `C[C@H](NC(=S)Nc1ccc(NC(=O)c2ccccc2F)cc1)c1ccccc1` [Example 1013, 2-Fluoro-N-{4-[3-((1S)-1-phenyl-ethyl)-thioureido]-phenyl}-benzamide], the IC50 in test [1] (read-out: IC50 ug/ml HCMV) is 8.2 µg/mL (≈ 20.8 µM); in the test with VZV strain Ellen (setting [2]) it was 0.27 µg/mL (≈ 0.686 µM); in the test with HSV- I (HSV- I, Vero cells, ELISA) it was > 10 µg/mL.

Turning to `C[C@@H](NC(=S)Nc1ccc(NC(=O)c2ccccc2F)cc1)c1ccc(Cl)cc1` [Example 1014, N-(4-{3-[(1R)-1-(4-Chloro-phenyl)-ethyl]-thioureido}-phenyl)-2-fluoro-benzamide], the IC50 is 2.9 µg/mL (≈ 6.78 µM) in test [1] (setting [3]), > 7.5 µg/mL with VZV strain Ellen (setting [4]) and > 10 µg/mL in the test on HSV- I (Vero).

Consider `C[C@H](NC(=S)Nc1ccc(NC(=O)c2ccccc2F)cc1)c1ccc(Cl)cc1` [Example 1015, N-(4-{3-[(1S)-1-(4-Chloro-phenyl)-ethyl]-thioureido}-phenyl)-2-fluoro-benzamide], for which the IC50 in test [1] (setting [3]) is 2.5 µg/mL (≈ 5.84 µM); in the test on VZV strain Ellen (setting [4]), 0.03 µg/mL (≈ 0.0701 µM); in the test on HSV- I (Vero), > 10 µg/mL.

Regarding `C[C@@H](NC(=S)Nc1ccc(NC(=O)c2ccccc2F)cc1)c1ccccc1` [Example 1016, 2-Fluoro-N-{4-[3-((1R)-1-phenyl-ethyl)-thioureido]-phenyl}-benzamide], the IC50 in test [1] (read-out: IC50 ug/ml HCMV) is 6.4 µg/mL (≈ 16.3 µM); in the test with VZV strain Ellen (setting [2]), > 7.5 µg/mL; in the test on HSV- I (HSV- I, Vero cells, ELISA) it was > 10 µg/mL.

Consider `COc1ccccc1C(=O)Nc1ccc(NC(=S)NC(C)c2ccc(C#N)cc2)cc1` (stereo not shown) [Example 1017, N-(4-{3-[1-(4-Cyano-phenyl}-ethyl]-thioureido}-phenyl)-2-methoxy-benzamide], for which the IC50 is > 10 µg/mL in test [1] (setting [3]), 0.3 µg/mL (≈ 0.697 µM) in the test on VZV strain Ellen (setting [4]) and > 10 µg/mL in the test with HSV- I (Vero).

In the case of `COc1ccccc1C(=O)Nc1ccc(NC(=S)NC(C)c2cc3ccccc3o2)cc1` (stereo not shown) [Example 1018, N-{4-[3-(1-Benzofuran-2-yl-ethyl)-thioureido]-phenyl}-2-methoxy-benzamide], the IC50 was > 10 µg/mL in test [1] (setting [3]), 0.09 µg/mL (≈ 0.202 µM) in the test on VZV strain Ellen (setting [4]) and > 10 µg/mL with HSV- I (Vero).

For `CC(NC(=S)Nc1ccc(NC(=O)c2cccc(C#N)c2)cc1)c1ccc(F)cc1` (stereo not shown) [Example 1020, 3-Cyano-N-(4-{3-[1-(4-fluoro-phenyl)-ethyl]-thioureido}-phenyl)-benzamide], the IC50 in test [1] (read-out: IC50 ug/ml HCMV) is 6.5 µg/mL (≈ 15.5 µM); in the test with VZV strain Ellen (setting [2]) it was 6.3 µg/mL (≈ 15.1 µM); in the test on HSV- I (HSV- I, Vero cells, ELISA), > 10 µg/mL.

Turning to `CC(NC(=S)Nc1ccc(NC(=O)c2ccc(C(F)(F)F)cc2)cc1)c1ccc(F)cc1` (stereo not shown) [Example 1021, N-(4-{3-[1-(4-Fluoro-phenyl)-ethyl]-thioureido}-phenyl)-4-trifluoromethyl-benzamide], the IC50 in test [1] (read-out: IC50 ug/ml HCMV) is > 10 µg/mL; in the test with VZV strain Ellen (setting [2]), 0.4 µg/mL (≈ 0.867 µM); in the test with HSV- I (HSV- I, Vero cells, ELISA), > 10 µg/mL.

Consider `CC(NC(=S)Nc1ccc(NC(=O)c2ccc(C#N)cc2)cc1)c1ccc(F)cc1` (stereo not shown) [Example 1022, 4-Cyano-N-(4-{3-[1-(4-fluoro-phenyl)-ethyl]-thioureido}-phenyl)-benzamide], for which the IC50 in test [1] (read-out: IC50 ug/ml HCMV) is 4.4 µg/mL (≈ 10.5 µM); in the test with VZV strain Ellen (setting [2]) it was 1.5 µg/mL (≈ 3.58 µM); in the test with HSV- I (HSV- I, Vero cells, ELISA) it was > 10 µg/mL.

In the case of “N-(4-{3-[1-(4-Bromo-phenyl)-ethyl]-thioureido}-phenyl)-2-methoxy-benzamide [Example 1019]”, the “IC50 ug/ml HCMV” value in test [1] amounted to 2.6 µg/mL. Also, in the test with VZV strain Ellen (setting [5]), the “IC50 (ug/ml) VZV” value came out at 0.05 µg/mL. Moreover, the “IC50 (ug/ml) HSV” value in the test with HSV- I (HSV- I, Vero cells, ELISA) was >10 µg/mL.

For the molecule “N-{4-[3-(3-Chloro-4-methoxy-phenyl)-thioureido]-phenyl}-4-methoxy-benzamide [Example 821]”, the “IC50 ug/ml HCMV” value in test [1] amounted to 1 µg/mL. Further, the “% inhibition 10 ug/ml VZV” value in the test on VZV strain Ellen (10 ug/ml, VZV strain Ellen, HFF cells, ELISA) was determined as 55%. The “IC50 (ug/ml) VZV” value in the test on VZV strain Ellen (setting [5]) is >10 µg/mL. Further, the “IC50 (ug/ml) HSV” value in the test with HSV- I (HSV- I, Vero cells, ELISA) is 0.15 µg/mL.
